Measurements from US20260285850A1, “SUBSTITUTED OXAZOLIDINONES AND IMIDAZOLINONES AS HERBICIDES” (FMC CORPORATION, priority 2023, published 2026).

Assays:
Assay type in all cases: in vivo
[1] = system: barnyardgrass (Echinochloa crus-galli); experiment: Test A preemergence soil spray, visual injury rating 0-100; details: 10 days
How it was run: (§1)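 Compound in a non-phytotoxic, surfactant-containing solvent is applied either as a directed soil spray before seedlings emerge or onto emerged plants 2-10 cm tall; pots hold a loam-sand blend. Plants grow 10 days under greenhouse conditions and are rated by eye against untreated controls (0 no effect, 100 complete control).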

[2] = system: blackgrass (Alopecurus myosuroides); experiment: as above; details: 10 days
How it was run: as §1

corn (Zea mays) [3] = experiment: as above; details: 10 days
How it was run: as §1

[4] = system: green foxtail (Setaria viridis); experiment: as above; details: 10 days
How it was run: as §1

kochia (Bassia scoparia) [5] = experiment: as above; details: 10 days
How it was run: as §1

[6] = system: oat, wild (wild oat, Avena fatua); experiment: as above; details: 10 days
How it was run: as §1

[7] = system: palmer (palmer amaranth, palmer pigweed, Amaranthus palmeri); experiment: as above; details: 10 days
How it was run: as §1

[8] = system: ragweed (common ragweed, Ambrosia artemisiifolia); experiment: as above; details: 10 days
How it was run: as §1

[9] = system: ryegrass, Italian (italian ryegrass, Lolium multiflorum); experiment: as above; details: 10 days
How it was run: as §1

soybean (Glycine max) [10] = experiment: as above; details: 10 days
How it was run: as §1

[11] = system: wheat (Triticum aestivum); experiment: as above; details: 10 days
How it was run: as §1

[12] = system: barnyardgrass (Echinochloa crus-galli); experiment: Test A postemergence application, visual injury rating 0-100
How it was run: as §1

[13] = system: blackgrass (Alopecurus myosuroides); experiment: as above
How it was run: as §1

corn (Zea mays) [14] = experiment: as above
How it was run: as §1

[15] = system: galium (catchweed bedstraw, Galium aparine); experiment: as above
How it was run: as §1

[16] = system: green foxtail (Setaria viridis); experiment: as above
How it was run: as §1

[17] = system: horseweed (Erigeron canadensis); experiment: as above
How it was run: as §1

kochia (Bassia scoparia) [18] = experiment: as above
How it was run: as §1

[19] = system: oat, wild (wild oat, Avena fatua); experiment: as above
How it was run: as §1

[20] = system: palmer (palmer amaranth, palmer pigweed, Amaranthus palmeri); experiment: as above
How it was run: as §1

[21] = system: ragweed (common ragweed, Ambrosia artemisiifolia); experiment: as above
How it was run: as §1

[22] = system: ryegrass, Italian (italian ryegrass, Lolium multiflorum); experiment: as above
How it was run: as §1

soybean (Glycine max) [23] = experiment: as above
How it was run: as §1

[24] = system: wheat (Triticum aestivum); experiment: as above
How it was run: as §1

[25] = system: barnyardgrass (Echinochloa crusgalli); experiment: Test B flooded paddy test, visual plant response rating 0-100; details: 250 g ai/ha, Flood, applied to paddy water, evaluated after 13 days
How it was run: (§2)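 Plants were grown to the 2-leaf stage, then pots were flooded to 3 cm above the soil and compound was applied directly to the paddy water, with that depth kept throughout.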

[26] = system: ducksalad (Heteranthera limosa); experiment: as above; details: 250 g ai/ha, Flood, applied to paddy water, evaluated after 13 days
How it was run: as §2

rice (Oryza sativa) = experiment: as above; details: 250 g ai/ha, Flood, applied to paddy water, evaluated after 13 days
How it was run: as §2

[27] = system: sedge, umbrella (small-flower umbrella sedge, Cyperus difformis); experiment: as above; details: 250 g ai/ha, Flood, applied to paddy water, evaluated after 13 days
How it was run: as §2

[28] = 62 g ai/ha, 0 = no effect, 100 = complete control
[29] = 62 g ai/ha, postemergence, 10 days, 0 = no effect, 100 = complete control
[30] = Postemergence, 16 g ai/ha, greenhouse 10 days, 0 no effect, 100 complete control

With `COC(=O)C1CC(NC(=O)C2(C)CN(c3cc(F)cc(F)c3)C(=O)O2)C1` (stereo not shown) [Compound 118, methyl 3-[[3-(3,5-difluorophenyl)-5-methyl-2-oxo-oxazolidine-5-carbonyl]amino]cyclobutanecarboxylate] the “Barnyardgrass plant response rating” value ([1]; 16 g ai/ha, 0 to 100 scale) was 10, the “Barnyardgrass plant response rating (0-100)” value [1, 28] was 80 and the “Blackgrass plant response rating” value ([2]; 16 g ai/ha, 0 to 100 scale) was 30. For the same molecule, the “Blackgrass plant response rating (0-100)” value [2, 28] was 90, the “Corn plant response rating” value (corn (Zea mays) [3]; 16 g ai/ha, 0 to 100 scale) was 30 and the “Corn plant response rating (0-100)” value (corn (Zea mays) [3]; [28]) was 90. The “Foxtail, Green plant response rating” value ([4]; 16 g ai/ha, 0 to 100 scale) was 60, the “Foxtail, Green plant response rating (0-100)” value [4, 28] was 90 and the “Kochia plant response rating” value (kochia (Bassia scoparia) [5]; 16 g ai/ha, 0 to 100 scale) was 0. For the same molecule, the “Kochia plant response rating (0-100)” value (kochia (Bassia scoparia) [5]; [28]) was 60, the “Oat, Wild plant response rating” value ([6]; 16 g ai/ha, 0 to 100 scale) was 90 and the “Oat, Wild plant response rating (0-100)” value [6, 28] was 90. For the same molecule, the “Pigweed, Palmer plant response rating” value ([7]; 16 g ai/ha, 0 to 100 scale) was 20, the “Pigweed, Palmer plant response rating (0-100)” value [7, 28] was 50 and the “Ragweed plant response rating” value ([8]; 16 g ai/ha, 0 to 100 scale) was 0. The “Ragweed plant response rating (0-100)” value [8, 28] was 0, the “Ryegrass, Italian plant response rating” value ([9]; 16 g ai/ha, 0 to 100 scale) was 20 and the “Ryegrass, Italian plant response rating (0-100)” value [9, 28] was 80. The “Soybean plant response rating” value (soybean (Glycine max) [10]; 16 g ai/ha, 0 to 100 scale) was 0, the “Soybean plant response rating (0-100)” value (soybean (Glycine max) [10]; [28]) was 30 and the “Wheat plant response rating” value ([11]; 16 g ai/ha, 0 to 100 scale) was 20. The “Wheat plant response rating (0-100)” value [11, 28] was 80, the “Barnyardgrass plant response rating (0-100)” value [12, 29] was 100 and the “Barnyardgrass plant response rating (0 to 100 scale)” value [12, 30] was 50. The “Blackgrass plant response rating (0-100)” value [13, 29] was 100, the “Blackgrass plant response rating (0 to 100 scale)” value [13, 30] was 90 and the “Corn plant response rating (0-100)” value (corn (Zea mays) [14]; [29]) was 100. For the same molecule, the “Corn plant response rating (0 to 100 scale)” value (corn (Zea mays) [14]; [30]) was 90, the “Galium plant response rating (0-100)” value [15, 29] was 60 and the “Galium plant response rating (0 to 100 scale)” value [15, 30] was 50. The “Foxtail, Green plant response rating (0-100)” value [16, 29] was 90, the “Foxtail, Green plant response rating (0 to 100 scale)” value [16, 30] was 90 and the “Horseweed plant response rating (0-100)” value [17, 29] was 0. For the same molecule, the “Horseweed plant response rating (0 to 100 scale)” value [17, 30] was 0, the “Kochia plant response rating (0-100)” value (kochia (Bassia scoparia) [18]; [29]) was 70 and the “Kochia plant response rating (0 to 100 scale)” value (kochia (Bassia scoparia) [18]; [30]) was 30. For the same molecule, the “Oat, Wild plant response rating (0-100)” value [19, 29] was 90, the “Oat, Wild plant response rating (0 to 100 scale)” value [19, 30] was 30 and the “Pigweed, Palmer plant response rating (0-100)” value [20, 29] was 70. For the same molecule, the “Pigweed, Palmer plant response rating (0 to 100 scale)” value [20, 30] was 20, the “Ragweed plant response rating (0-100)” value [21, 29] was 50 and the “Ragweed plant response rating (0 to 100 scale)” value [21, 30] was 30. The “Ryegrass, Italian plant response rating (0-100)” value [22, 29] was 80, the “Ryegrass, Italian plant response rating (0 to 100 scale)” value [22, 30] was 20 and the “Soybean plant response rating (0-100)” value (soybean (Glycine max) [23]; [29]) was 60. The “Soybean plant response rating (0 to 100 scale)” value (soybean (Glycine max) [23]; [30]) was 60, the “Wheat plant response rating (0-100)” value [24, 29] was 90 and the “Wheat plant response rating (0 to 100 scale)” value [24, 30] was 80. The “Plant response rating, Barnyardgrass (0 to 100 scale, 0 is no effect and 100 is complete control)” value [25] was 0, the “Plant response rating, Ducksalad (0 to 100 scale, 0 is no effect and 100 is complete control)” value [26] was 0 and the “Plant response rating, Rice (0 to 100 scale, 0 is no effect and 100 is complete control)” value (rice (Oryza sativa)) was 0. The “Plant response rating, Sedge, Umbrella (0 to 100 scale, 0 is no effect and 100 is complete control)” value [27] was 0.
